# Results reported in paper PMC9921851, “Synthesis and Preclinical Evaluation of Three Novel ^68Ga-Labeled Bispecific PSMA/FAP-Targeting Tracers for Prostate Cancer Imaging” (Molecules, 2023).
# Experiments:
# [1] = test system: PSMA-expressing LNCaP tumor xenografts; experiment: Ex vivo biodistribution in LNCaP tumor-bearing mice; conditions: 1 h post injection, range over LNCaP and HEK293T:hFAP tumor-bearing mice
# Method: Biodistribution studies were conducted at 1 h post injection with ^68Ga-labeled AV01017, AV01030, AV01038, HTK03041, and FAPI-04 in LNCaP tumor-bearing mice (Figure 5 and Table S4, Supplementary Materials). The results were consistent with the observation from their PET images. Tumor uptake values for [^68Ga]Ga-AV01017, [^68Ga]Ga-AV01030, [^68Ga]Ga-AV01038, [^68Ga]Ga-HTK03041, and [^68Ga]Ga-FAPI-04 were 4.38 ± 0.55, 5.17 ± 0.51, 4.25 ± 0.86, 23.1 ± 6.11, and 3.15 ± 1.43 %ID/g, respectively. […] Although not statistically significant, the bispecific tracers with a longer linker tend to have a higher blood uptake value (9.24 ± 1.55 %ID/g for [^68Ga]Ga-AV01017; 7.07 ± 0.31%ID/g for [^68Ga]Ga-AV01038; 5.75 ± 0.59 %ID/g for [^68Ga]Ga-AV01030) and a lower tumor-to-blood ratio (0.48 ± 0.11 for [^68Ga]Ga-AV01017; 0.60 ± 0.13 for [^68Ga]Ga-AV01038; 0.89 ± 0.03 for [^68Ga]Ga-AV01030).
# Imaging and biodistribution studies were performed using male NOD.Cg-Rag1tm1Mom Il2rgtm1Wjl/SzJ (NRG) mice following previously published procedures. The experiments were conducted according to the guidelines established by the Canadian Council on Animal Care and approved by Animal Ethics Committee of the University of British Columbia. The mice were briefly sedated by inhalation of 2.5% isoflurane in oxygen, and 100 µL LNCaP (2 × 10^5 cells) or HEK293T:hFAP (8.5 × 10^6 cells) cells were inoculated subcutaneously behind the left shoulder. When the tumor grew to 5–8 mm in diameter over 3–4 weeks and 4–5 weeks for HEK293T:hFAP and LNCaP tumors, respectively, the mice were used for PET/CT imaging and biodistribution studies.
# For biodistribution studies, the mice were injected with the radiotracer (~2–4 MBq) as described above. At 1 h post injection, the mice were euthanized by CO2 inhalation. Blood was withdrawn by cardiac puncture, and organs/tissues of interest were collected, weighed, and counted using a Perkin Elmer (Waltham, MA, USA) Wizard2 2480 automatic gamma counter.
# recombinant human FAP = molecular target: T1, recombinant human FAP (Homo sapiens, UniProt Q12884); experiment: In vitro FAP fluorescence enzyme-inhibition assay (Suc-Gly-Pro-AMC substrate); type: biochemical; conditions: n = 3
# T1 construct: purchased Biolegend
# T1 sequence (Q12884 1-760): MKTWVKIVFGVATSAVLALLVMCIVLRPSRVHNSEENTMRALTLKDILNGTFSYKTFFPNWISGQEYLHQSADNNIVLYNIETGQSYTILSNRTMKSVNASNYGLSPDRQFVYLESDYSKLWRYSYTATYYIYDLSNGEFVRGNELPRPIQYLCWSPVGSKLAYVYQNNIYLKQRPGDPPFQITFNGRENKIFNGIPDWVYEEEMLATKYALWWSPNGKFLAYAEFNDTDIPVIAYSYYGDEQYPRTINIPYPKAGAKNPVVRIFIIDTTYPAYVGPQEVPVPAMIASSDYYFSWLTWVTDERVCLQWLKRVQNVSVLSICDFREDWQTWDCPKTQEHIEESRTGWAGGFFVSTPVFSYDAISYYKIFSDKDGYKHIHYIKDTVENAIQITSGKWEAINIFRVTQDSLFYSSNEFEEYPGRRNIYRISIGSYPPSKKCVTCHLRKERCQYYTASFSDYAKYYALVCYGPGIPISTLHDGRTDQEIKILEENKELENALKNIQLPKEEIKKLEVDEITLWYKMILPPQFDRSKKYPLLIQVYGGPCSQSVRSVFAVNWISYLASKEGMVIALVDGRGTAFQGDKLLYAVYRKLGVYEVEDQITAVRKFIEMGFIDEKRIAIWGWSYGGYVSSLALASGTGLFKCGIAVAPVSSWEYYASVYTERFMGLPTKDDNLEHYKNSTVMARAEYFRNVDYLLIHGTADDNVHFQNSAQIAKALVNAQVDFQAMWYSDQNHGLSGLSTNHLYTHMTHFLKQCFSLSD
# Method: The binding affinities of Ga-AV01017, Ga-AV01030, Ga-AV01038, Ga-HTK03041, and Ga-FAPI-04 to human FAP were measured by an enzyme-inhibition assay using Suc-Gly-Pro-AMC as the FAP substrate. The human FAP enzymatic activity on the substrate was inhibited by Ga-complexed standards in a dose-dependent manner (Figure 3B).
# The half maximal inhibitory concentration (IC50) values of the tested compounds for FAP were measured by in vitro enzymatic assay. The recombinant human FAP (Biolegend; 0.2 µg/mL, 50 µL) was added into a costar 96-well plate. PBS and varied concentrations (0.2 pM to 2 µM) of tested nonradioactive Ga-complexed standards were added to each well (in duplicate) containing the recombinant human FAP. After being incubated for 30 min at 37 °C, 50 µL of Suc-Gly-Pro-AMC (2 µM, Bachem) was added to each well. The fluorescent signals were acquired at 15, 30, 45, and 60 min using a FlexStation 3 Multi-Mode Microplate Reader with excitation at 380 nm and emission at 460 nm. The IC50(FAP) was calculated using a “nonlinear fit model” built-in model in GraphPad Prism 7.02 software
# PSMA = molecular target: T2, PSMA (Homo sapiens, UniProt Q04609); experiment: In vitro PSMA competition binding assay ([^18F]DCFPyL displacement on LNCaP cells); conditions: radioligand [^18F]DCFPyL, n = 3
# T2 construct: endogenous in cells; host or cells: LNCaP cells (ATCC via Cedarlane)
# Method: The binding affinities of Ga-AV01017, Ga-AV01030, Ga-AV01038, Ga-HTK03041, and Ga-FAPI-04 to PSMA were measured by a cell-based binding assay using PSMA-expressing LNCaP prostate cancer cells. The nonradioactive Ga-complexed standards, except Ga-FAPI-04, inhibited the binding of [^18F]DCFPyL to LNCaP cells in a dose-dependent manner (Figure 3A).
# The PSMA binding assays were conducted following previously published procedures using LNCaP cells and [^18F]DCFPyL as the radioligand [34, 42, 43]. Data analyses of IC50 were performed using the nonlinear regression algorithm of GraphPad Prism 7 (San Diego, CA, USA) software.
# T2 sequence (Q04609 whole entry): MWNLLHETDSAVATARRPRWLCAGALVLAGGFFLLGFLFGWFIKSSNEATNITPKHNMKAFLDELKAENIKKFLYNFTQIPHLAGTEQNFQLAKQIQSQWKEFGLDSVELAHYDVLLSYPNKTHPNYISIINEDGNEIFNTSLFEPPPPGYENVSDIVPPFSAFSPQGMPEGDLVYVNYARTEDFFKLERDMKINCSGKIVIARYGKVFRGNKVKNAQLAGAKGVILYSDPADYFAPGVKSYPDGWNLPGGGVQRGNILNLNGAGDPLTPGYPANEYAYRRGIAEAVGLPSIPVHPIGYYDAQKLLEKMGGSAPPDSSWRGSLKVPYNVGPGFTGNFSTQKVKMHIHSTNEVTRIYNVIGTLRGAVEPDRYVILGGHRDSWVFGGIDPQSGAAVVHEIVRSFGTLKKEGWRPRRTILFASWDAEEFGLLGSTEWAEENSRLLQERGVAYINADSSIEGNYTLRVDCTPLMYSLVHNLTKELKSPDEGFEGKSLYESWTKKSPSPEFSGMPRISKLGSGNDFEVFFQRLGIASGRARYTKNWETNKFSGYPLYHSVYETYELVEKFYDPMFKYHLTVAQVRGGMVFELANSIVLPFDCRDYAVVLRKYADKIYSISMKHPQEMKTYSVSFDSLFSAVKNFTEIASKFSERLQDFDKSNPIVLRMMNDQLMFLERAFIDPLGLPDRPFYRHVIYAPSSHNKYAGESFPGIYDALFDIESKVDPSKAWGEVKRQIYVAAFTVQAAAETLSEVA
Blood uptake values (range over both tumor models) [1],IC50 (recombinant human FAP),IC50 (PSMA),Structure (SMILES)
9.24–11.9 %ID/g,1.25 ± 0.39 nM,25.2 ± 10.7 nM,N#C[C@@H]1CC(F)(F)CN1C(=O)CNC(=O)c1ccnc2ccc(OCCCc3cn(CC(=O)N[C@@H](CCCCNC(=O)CN4CCN(CC(=O)[O-])CCN(CC(=O)[O-])CCN(CC(=O)[O-])CC4)C(=O)NCC(=O)NC[C@H]4CC[C@H](C(=O)N[C@@H](Cc5c6ccccc6cc6ccccc56)C(=O)NCCCC[C@H](NC(=O)N[C@@H](CCC(=O)O)C(=O)O)C(=O)O)CC4)nn3)cc12.[Ga+3] [Ga-AV01017]
5.68–5.75 %ID/g,2.74 ± 0.33 nM,71.6 ± 23 nM,N#C[C@@H]1CC(F)(F)CN1C(=O)CNC(=O)c1ccnc2ccc(-c3cn(CC(=O)N[C@@H](CCCCNC(=O)CN4CCN(CC(=O)[O-])CCN(CC(=O)[O-])CCN(CC(=O)[O-])CC4)C(=O)NCC(=O)NC[C@H]4CC[C@H](C(=O)N[C@@H](Cc5c6ccccc6cc6ccccc56)C(=O)NCCCC[C@H](NC(=O)N[C@@H](CCC(=O)O)C(=O)O)C(=O)O)CC4)nn3)cc12.[Ga+3] [Ga-AV01030]
7.07–7.45 %ID/g,2.31 ± 0.13 nM,29.4 ± 25.2 nM,N#C[C@@H]1CC(F)(F)CN1C(=O)CNC(=O)c1ccnc2ccc(OCc3cn(CC(=O)N[C@@H](CCCCNC(=O)CN4CCN(CC(=O)[O-])CCN(CC(=O)[O-])CCN(CC(=O)[O-])CC4)C(=O)NCC(=O)NC[C@H]4CC[C@H](C(=O)N[C@@H](Cc5c6ccccc6cc6ccccc56)C(=O)NCCCC[C@H](NC(=O)N[C@@H](CCC(=O)O)C(=O)O)C(=O)O)CC4)nn3)cc12.[Ga+3] [Ga-AV01038]

Structure (SMILES),Blood uptake values (range over both tumor models) [1],IC50 (recombinant human FAP),IC50 (PSMA)
"O=C([O-])CN1CCN(CC(=O)[O-])CCN(CC(=O)NC[C@H]2CC[C@H](C(=O)N[C@@H](Cc3c4ccccc4cc4ccccc34)C(=O)NCCCC[C@H](NC(=O)N[C@@H](CCC(=O)O)C(=O)O)C(=O)O)CC2)CCN(CC(=O)[O-])CC1.[Ga+3] [Ga-HTK03041, reference compound]",–,2010 ± 585 nM,0.76 ± 0.12 nM
